Data set [1] can be described thus: Metabolic stability test in rat (generation of control compound in plasma). The format is in vivo. The conditions noted are these: male SD rats, equivalent of 1 mg/kg control compound via tail vein, LC/MS/MS. The source says: The compound represented by Formula (1) of the present invention has a structure in which the hydroxyl group on the 9-position of a 9-hydroxymethyl-cyclohepta[b]pyridine-3-carbonylguanidine derivative is converted to a specific substituent. However, if the compound is metabolized in vivo to remove the specific substituent from the compound, there may be generated the original 9-hydroxymethyl-cyclohepta[b]pyridine-3-carbonylguanidine derivative, which has toxic effects on the central nervous system. Thus, the inventive compounds as synthesized in Examples were administered in vivo to study whether the control compound, which was the corresponding 9-hydroxymethyl product, was generated.
Male SD rats (7 weeks old) were administered at 1 mg/kg (an amount calculated excluding salts) of the control compound, an equivalent amount of the Inventive Compound 2, 4, 6, 7 or 12, or Reference Compound 20, through the tail vein. After administration, about 0.2 mL of blood samples were collected after 5, 15, 30, 60 and 120 minutes, and the blood samples were centrifuged at 4° C. at a speed of rotation of 15000 for 15 minutes, thus to separate the supernatant plasma. The concentration of the control compound in the plasma was measured by LC/MS/MS. The measurement results were shown as +++ when the detected plasma concentration of the control compound is 200 ng/mL or greater; ++ for more than 100 ng/mL and less than 200 ng/mL; + for more than 20 ng/mL and less than 100 ng/mL; and − for less than 20 ng/mL or no detection.

A short description of data set [2]: Comparative test for transferability to the brain in rat. The data set is classed as in vivo. The conditions noted are these: male SD rats, 50 mg/kg via tail vein. The method, then:
To male SD rats (6 weeks old), the Control Compound or the Inventive Compound 2 was administered through the tail vein in an amount of 50 mg/kg. After administration, whole blood samples were collected over time from the abdominal aorta under etherization, and the brain tissues were extracted immediately. The brain tissues were lightly washed off to remove the blood attached around with physiological saline, and subsequently the tissues were frozen in liquid nitrogen and preserved at −30° C. until analyzed. The blood was centrifuged at 4° C. at a rotation speed of 15000 for 15 minutes to separate the supernatant plasma, and was preserved at −30° C. until analyzed. The brain tissues were thawed by standing at ambient temperature, and then the wet weight was measured. Distilled water was added in an amount five times of the wet weight, and a suspension was prepared using a Polytron homogenizer. The measurement of the test compound concentration in the plasma and the brain tissues was performed by LC/MS/MS. The transferability of the drug to the brain was calculated by dividing the drug concentration in the brain tissues by the plasma concentration obtained at the same time.

The test system of data set [3] is Beagle dogs. The data set can be described thus: Toxicity test after 4-days repeated intravenous administration in beagle dogs. The data set is classed as in vivo, dog. As to conditions: equivalent of 30 mg/kg control compound intravenously once a day for 4 days. The method, then: With one male and one female dogs in each group, 30 mg/kg of the Control Compound dissolved in physiological saline (an amount calculated excluding salts), or an equivalent amount of the Inventive Compound 2, 4, 6 or 8 was repeatedly administered intravenously once a day for 4 days, and general symptom observation and pharmacological histopathologic examination were performed.

The test system of data set [4] is reperfusion-induced arrhythmia upon myocardial ischemia. Kind of data set: Reperfusion-induced arrhythmia inhibitory action test. The format is in vivo, rat. The conditions noted are these: male SD rats, 3.62 mmol/L, 1 mL/kg intravenous, within 10 minutes after reperfusion. The method, then: Subsequently, in evaluation of the in vivo NHE inhibitory action, the effect of the test compound on reperfusion-induced arrhythmia upon myocardial ischemia was evaluated according to the method of Aihara et al. [European Journal of Pharmacology, Vol. 404, p. 221-229 (2000)]. Under anesthesia using pentobarbital sodium (60 mg/kg, intraperitoneal administration), cannulae were inserted into trachea, femoral vein and carotid artery of male SD rats ([…]) for artificial ventilation, drug administration and blood pressure measurement, respectively. The blood pressure was measured using a strain pressure amplifier via a pressure transducer, while the heart rate was measured from the blood pressure pulse wave using a cardiotachometer. Furthermore, an electrocardiogram (lead II) was measured from the electrodes attached to each four limbs. Next, under artificial ventilation, left thoracotomy was performed and a snare (5-0 nylon) was loosely placed around a blood vessel which was about 3 mm apart from the origin of the left coronary artery. Thereafter, it was confirmed that arrhythmia was not occurred for 10 minutes, and then the snare was fastened to induce local myocardial ischemia. Furthermore, after 4 minutes of myocardial ischemia, the compound was intravenously administered for 1 minute, and after 5 minutes of myocardial ischemia, the snare was loosened, then the arrhythmia occurred after reperfusion was recorded and analyzed with an arrhythmia analyzer (Softron Co., Ltd.), thereby the anti-arrhythmic action of the compound was evaluated. […] The control group was administered with physiological saline.
With regard to the ventricular fibrillation (Vf) which occurred within 10 minutes after reperfusion (in the cases of halfway death, up to the time point where cardiac arrest was confirmed), arrhythmia analysis was performed according to the Guidelines for Lambeth Convention [Cardiovascular research, Vol. 22, p. 447-455, 1988], and evaluation was made in terms of the frequency of Vf occurrence, cumulative duration time of Vf, and the mortality.
The frequency of Vf occurrence, cumulative duration of Vf, and the mortality for the respective test compounds are presented in Table 2.

For data set [5], the system named is male mice. The data set can be described thus: Toxicity test with 2-days repeated intraperitoneal administration in mouse. As to conditions: equivalent of 300 mg/kg control compound intraperitoneally once a day for 2 days. The data set is classed as in vivo. The method, then:
For three male mice in each group, 300 mg/kg of the Control Compound (an amount calculated excluding salts), or an equivalent amount of the Inventive Compound 2, 4, 6, 7 or 12 were intraperitoneally administered once a day for 2 days, and a histopathological tests were performed. The Control Compound, and the Inventive Compounds 2, 4 and 6 were suspended in a 0.5% tragacanth gum solution, and the Inventive Compound 7 was suspended in a 10 DMSO-containing 0.5% tragacanth gum solution, while the Inventive Compound 12 was suspended in olive oil. For the histopathological test, in order to make a more thorough examination of central nervous toxicity, the brain was examined after whole body was subjected to perfusion fixation with a 4% formaldehyde in neutral phosphate buffer as a fixing solution using a liquid transporting pump under pentobarbital sodium anesthesia.

Data set [6] addresses T1, Na^+/H^+ exchanger (NHE) (Rattus norvegicus, UniProt P26431).
T1 construct: from tissue; host or cells: platelet-rich plasma from Wistar rat blood
Kind of data set: NHE inhibitory effect test (swelling of rat platelets induced by sodium propionate). The conditions noted are these: rat platelet-rich plasma, sodium propionate buffer pH 6.7; 300 μM Amiloride taken as 100% inhibition; Probit method. The data set is classed as cell-based. The method, then: The NHE inhibitory activity was measured according to the method by Scholz et al. [British Journal of Pharmacology, Vol. 109, p. 562-568 (1993)], taking the swelling of rat platelets induced by sodium propionate as an index.
Under etherization, blood was collected (8 mL) from the abdominal aorta of a Wistar rat, and 1 mL of a citrate dextrose solution as an anticoagulant was added. The blood sample was immediately centrifuged at 90×g for 10 minutes, and then the collected supernatant was taken as platelet-rich plasma. Subsequently, to 250 μL of a 140 mM sodium propionate buffer solution containing the test compound dissolved in dimethylsulfoxide (pH 6.7, final dimethylsulfoxide concentration 1%), the platelet-rich plasma prepared in the above (number of platelet; 10×10^6/50 μL) was added, and the decrease in the absorbance associated with the swelling of platelets was measured over time with a Hematracer (NKK Corp.).
The rate of decrease in the absorbance at 20 seconds after the addition of the platelet-rich plasma was taken as the NHE activity, and the inhibitory activity of the respective compounds was expressed as a relative activity, while the action obtained upon addition of 300 μM of Amiloride was taken as 100% inhibition.
In addition, the test results were obtained by calculating the concentration at which the inhibitory activity of the test compound becomes 50% (IC50 value), by a Probit method.

pIC50: −log10 of the molar value.

1 compound from US7875625B2, “Cyclohepta[b]pyridine-3-carbonylguanidine derivative and pharmaceutical product containing same” (Toa Eiyo Ltd., priority 2005, dated 2011) can be followed below.

The term pIC50 denotes the negative decadic logarithm of the IC50, by convention in mol/L. Lower therefore signals a high IC50.

T1 sequence (P26431 whole entry): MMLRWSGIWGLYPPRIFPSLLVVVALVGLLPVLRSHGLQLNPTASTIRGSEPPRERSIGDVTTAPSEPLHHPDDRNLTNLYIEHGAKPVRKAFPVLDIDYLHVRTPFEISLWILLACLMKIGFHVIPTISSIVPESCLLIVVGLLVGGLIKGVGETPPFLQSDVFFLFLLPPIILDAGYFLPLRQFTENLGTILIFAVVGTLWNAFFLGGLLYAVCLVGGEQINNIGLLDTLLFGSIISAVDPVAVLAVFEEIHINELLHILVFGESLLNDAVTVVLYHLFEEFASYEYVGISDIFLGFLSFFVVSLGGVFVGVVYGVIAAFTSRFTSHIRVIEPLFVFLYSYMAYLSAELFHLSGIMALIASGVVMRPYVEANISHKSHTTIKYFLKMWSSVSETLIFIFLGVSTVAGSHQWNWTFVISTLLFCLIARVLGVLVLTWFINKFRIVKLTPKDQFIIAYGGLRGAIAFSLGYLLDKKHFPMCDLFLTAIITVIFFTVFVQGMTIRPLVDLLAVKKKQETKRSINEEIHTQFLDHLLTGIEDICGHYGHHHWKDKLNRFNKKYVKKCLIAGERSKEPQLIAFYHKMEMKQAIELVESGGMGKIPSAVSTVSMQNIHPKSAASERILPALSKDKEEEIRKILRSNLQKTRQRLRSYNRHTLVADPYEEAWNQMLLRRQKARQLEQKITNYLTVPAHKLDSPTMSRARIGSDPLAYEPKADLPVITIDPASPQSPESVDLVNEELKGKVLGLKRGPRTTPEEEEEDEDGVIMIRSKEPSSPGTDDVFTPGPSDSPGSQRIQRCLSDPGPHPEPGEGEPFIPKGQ

Consider `CS(=O)(=O)O.Cc1nc2c(cc1C(=O)NC(=N)N)CCCCC2CO` (centres unmarked) [Control Compound, 9-Hydroxymethyl-2-methyl-6,7,8,9-tetrahydro-5H-cyclohepta[b]pyridine-3-carbonylguanidine methanesulfonic acid salt, reference compound], for which, in data set [1] (5 min), the “Plasma concentration of the control compound, after 5 min” value is reported as “+++ (+++ when the detected plasma concentration of the control compound is 200 ng/mL or greater)”. Besides, the “Plasma concentration of the control compound, after 15 min” value in data set [1] (15 min) was “++ (++ for more than 100 ng/mL and less than 200 ng/mL)”. In addition, the “Plasma concentration of the control compound, after 30 min” value in data set [1] (30 min) is “+ (+ for more than 20 ng/mL and less than 100 ng/mL)”. Moreover, in data set [1] (60 min), the “Plasma concentration of the control compound, after 60 min” value is “+ (+ for more than 20 ng/mL and less than 100 ng/mL)”. The “Plasma concentration of the control compound, after 120 min” value in data set [1] (120 min) is “− (− for less than 20 ng/mL or no detection)”. The “Concentration Intracerebral/Plasma, after 15 min” value in data set [2] (15 min) is reported as 1.64. In addition, in data set [2] (30 min), the “Concentration Intracerebral/Plasma, after 30 min” value is given as 2.33. Besides, in data set [3], the “General condition (symptom observation)” value was “vomiting, salivation, and decreases in locomotor activity, staggering gait and ananastasia”; the “Pathologic examination of the brain” value is “necrosis/chromatolysis of nerve cells, swelling of axons and vacuolation of myelin sheath”. In addition, in data set [4], the “Cumulative duration of Vf” value came to 30.2 s, the “Frequency of Vf occurrence” value came out at 50% and the Mortality is on record as 25%. Besides, the “Histopathological finding in the brain” value in data set [5] is “vacuolation was recognized in the cerebellar nuclei and vestibular nuclei”. This compound had a pIC50 in data set [6] of 7.48.
